Measured values: PMC11435438, “Cyclin-Dependent Kinase 8 Represents a Positive Regulator of Cytomegalovirus Replication and a Novel Host Target for Antiviral Strategies” (Pharmaceutics, 2024)
Like-named read-outs stand apart in the source and are kept apart here.

Experiments:
HCMV AD169-GFP [1] = test system: HCMV AD169-GFP; design: method as in PMID 35269635; conditions: GFP-based replication assay in HFFs, mean ± SD; cited from earlier work
mock-infected HFFs = conditions: cited from earlier work
HCMV AD169-GFP [2] = test: microbe, parasite or virus in culture; format: cell-based, human cytomegalovirus; conditions: ratio CC50/EC50; HCMV AD169-GFP, HFFs
Procedure: (i.e., 1 × TCID25/7d). Immediately after virus adsorption, the cells were treated with antiviral compounds or solvent control (DMSO). Infections were performed in biological quadruplicates, or as indicated for individual experiments. The cells were fixed by the addition of 150 µL 10% formalin/well 7 d p.i. (Merlin-GFP 14 d p.i.), and washed with PBS. For GFP or YFP quantitation, the Victor X4 microplate reader (PerkinElmer, Waltham, MA, USA) was primarily used, or as a very sensitive alternative, the ImageXpress® Pico device (Molecular Devices LLC, San Jose, CA, USA). Mean EC50 values of antiviral efficacy were calculated on the basis of three experimental replicates or as indicated (measurement of fluorescence values in quadruplicate), and percentage values were provided relative to the solvent control (DMSO).

[3] = test system: HCMV core NEC pUL50-pUL53; test: Nuclear rim localization of viral core NEC pUL50-pUL53 (IF, confocal imaging); format: cell-based, human cytomegalovirus; conditions: 0.5 µM MBV, 5 nM CCT, 2 nM MSC, 0.7 nM BI; HFFs, AD169-UL50-HA MOI 0.05, 7 d p.i.
Procedure: In order to investigate viral protein expression and localization, 3 × 10^5 HFFs were seeded in 6-well plates one day prior to infection with HCMV AD169-UL50-HA (MOI 0.05). After 90 min of viral absorption, cells were treated with 0.5 µM MBV, 5 nM CCT, 2 nM MSC or 0.7 nM BI-1347. The infected cells were fixed at 7 d p.i., before indirect immunofluorescence staining was performed for viral IE1, pUL50, and pUL53, and signals were evaluated by confocal laser-scanning microscopy (Leica Microsystems, TCS SP5, Wetzlar, Germany). The counterstaining of the nuclei was performed with DAPI.

[4] = mock-infected HFFs, Neutral Red assay, mean ± SD

Structure (SMILES): CC(C)c1cnn2c(NCc3ccccc3-n3cccn3)nc(OC3CCCNC3)nc12 (stereo not drawn) [LDC4297]
- EC50 (HCMV AD169-GFP [1]): 9 ± 2 nM
- CC50 (mock-infected HFFs): > 10000 nM

Structure (SMILES): CC(C)Nc1nc2cc(Cl)c(Cl)cc2n1[C@H]1O[C@@H](CO)[C@H](O)[C@@H]1O [MBV, maribavir]
- SI (selectivity index) (HCMV AD169-GFP [2]): >250
- nuclear rim localization of core NEC pUL50-pUL53 [3]: clear disruption of the smooth rim
- EC50 (HCMV AD169-GFP [1]): 350 ± 420 nM
- CC50 (mock-infected HFFs; [4]): > 100000 nM

Structure (SMILES): Cc1c(Br)c(Br)c2c3c1nc(N1CCNCC1)n3CCC2 [SEL120]
- SI (selectivity index) (HCMV AD169-GFP [2]): 75
- EC50 (HCMV AD169-GFP [1]): 79 ± 1 nM
- CC50 (mock-infected HFFs; [4]): 5900 ± 3850 nM
